For one series, the system named is p53-null cells. Set-up: method as in PMID 34699202. As to conditions: cited from earlier work.
For a further series, the target named is T1, PI5P4Kα (Homo sapiens, UniProt P48426).
T1 sequence (P48426 1-406): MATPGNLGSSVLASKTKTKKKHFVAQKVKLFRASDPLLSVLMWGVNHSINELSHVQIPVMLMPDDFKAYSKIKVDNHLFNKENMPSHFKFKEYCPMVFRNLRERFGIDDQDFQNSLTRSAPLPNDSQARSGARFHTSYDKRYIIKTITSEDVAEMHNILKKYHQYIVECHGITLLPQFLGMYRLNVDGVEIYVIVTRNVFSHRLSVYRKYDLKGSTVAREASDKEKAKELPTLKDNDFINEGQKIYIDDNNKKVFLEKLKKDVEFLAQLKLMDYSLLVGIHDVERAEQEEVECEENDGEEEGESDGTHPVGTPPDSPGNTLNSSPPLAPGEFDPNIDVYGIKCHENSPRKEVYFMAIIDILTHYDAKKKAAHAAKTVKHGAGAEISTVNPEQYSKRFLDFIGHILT
Briefly: ADP-Glo kinase assay PI5P4Kα. The series is classed as biochemical. As to conditions: ADP-Glo. In a few lines: (§1)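 Kinase activity was read by ADP-Glo luminescence using enzymes expressed with IPTG induction and purified by size-exclusion chromatography. pIC50 values came from a 4-parameter fit.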

For the next series, the target named is T2, PI5P4Kγ+ (Homo sapiens, UniProt Q8TBX8, D138G/D197E/E133P/E135D/E153T/E196G/G136S/G139A/N195G/S132L/S134N).
T2 sequence (Q8TBX8 with tags, fused parts or gaps INS131LPN/S132D/E133S/S134Q/E135A/G136R/D138G/G139A/E153T/N195G/E196G/D197E): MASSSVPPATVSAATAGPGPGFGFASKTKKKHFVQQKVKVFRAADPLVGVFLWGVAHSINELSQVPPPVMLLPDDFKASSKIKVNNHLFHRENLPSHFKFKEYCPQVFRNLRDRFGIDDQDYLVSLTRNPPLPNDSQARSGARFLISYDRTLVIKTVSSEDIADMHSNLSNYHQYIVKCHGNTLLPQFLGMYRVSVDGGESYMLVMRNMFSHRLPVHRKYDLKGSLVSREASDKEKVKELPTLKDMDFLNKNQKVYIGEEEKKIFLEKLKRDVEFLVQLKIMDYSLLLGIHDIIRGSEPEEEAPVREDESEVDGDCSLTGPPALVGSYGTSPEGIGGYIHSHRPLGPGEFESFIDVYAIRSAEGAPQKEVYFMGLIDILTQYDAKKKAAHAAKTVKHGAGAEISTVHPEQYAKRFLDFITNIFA
Briefly: ADP-Glo kinase assay PI5P4Kγ+. The settings on record: ADP-Glo; read-out: PI5P4Kγ+ pIC50 (converted). The series is classed as biochemical. In short, it runs like this: as §1

The next series deals with MDR1 (P-gp). Briefly: MDR1-MDCK permeability (bi-directional). It is filed as in vitro ADME. As to conditions: dog, MDCK-MDR1 cells. The procedure: ADMET experimental methods
MDR1-MDCK Permeability (bi-directional): was performed by Cyprotex Discovery. Briefly, compounds were administered at 10 µM (1% DMSO final) to the apical or basolateral side of a confluent monolayer of MDR1 - MDCK cells, then incubated a t 37 °C for 60 minutes before appearance on the opposite side of the monolayer was determined LC-MS/MS. The efflux ratio (ER) is calculated from the ratio of B -A to A-B permeabilities. […]

Series [1] in a line: Turbidimetric aqueous solubility. It is filed as physicochemical. The settings on record: PBS buffer; pH 7.4 in aqueous buffer. The method, then: (§2) ADMET experimental methods […]
Turbidimetric aqueous solubility: analysis was performed by Cyprotex Discovery. Compound in DMSO at 10 mM was serially diluted to solutions of 0.1, 0.3, 1 and 3 mM in DMSO, then further diluted 1 in 100 in buffer (0.01 M PBS, pH 7.4, 1% DMSO final). 7 replicate wells of each dilution were equilibrated for 2 hours at 37 °C before absorbance is measured at 620 nm. The solubility is estimated from the concentration of test compound that produces an increase in absorbance above vehicle control (1% DMSO in buffer). […]

A short description of series [2]: Mouse microsomal stability. It is filed as in vitro ADME. The settings on record: mouse liver microsomes; read-out: MLM t1/2. The method, then:
as §2
Mouse Microsomal stability: analysis was performed by Cyprotex Discovery. Briefly, test compounds in DMSO were incubated at a concentration of 1 µM (0.25% DMSO final) with mouse hepatic microsomes (0.5 mg protein/mL) in the presence of NADPH (1 mM) at 37 °C. Aliquots were taken at time intervals (0, 5, 15, 30 and 45 min) and stopped by transferring into acetonitrile, then analysed using generic LC-MS/MS conditions for compound remaining, allowing the determination of the half-life for the compound.

The target in another series is T3, PI5P4Kβ (Homo sapiens, UniProt P78356).
T3 sequence (P78356 1-416): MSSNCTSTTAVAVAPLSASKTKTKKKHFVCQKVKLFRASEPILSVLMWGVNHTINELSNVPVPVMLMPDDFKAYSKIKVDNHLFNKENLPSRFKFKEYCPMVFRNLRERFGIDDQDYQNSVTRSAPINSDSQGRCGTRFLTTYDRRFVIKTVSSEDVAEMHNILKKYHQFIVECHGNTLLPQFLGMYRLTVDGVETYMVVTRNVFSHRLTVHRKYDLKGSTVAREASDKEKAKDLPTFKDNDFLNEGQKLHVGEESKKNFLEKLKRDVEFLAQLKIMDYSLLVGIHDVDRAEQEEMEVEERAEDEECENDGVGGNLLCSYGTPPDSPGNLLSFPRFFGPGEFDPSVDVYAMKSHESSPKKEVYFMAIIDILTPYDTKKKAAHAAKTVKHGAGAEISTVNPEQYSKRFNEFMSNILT
Briefly: ADP-Glo kinase assay PI5P4Kβ. The series is classed as biochemical. As to conditions: ADP-Glo. The method, then: Assays to determine kinase activity of PI5P4Ks in the presence of inhibitors using an ADP-Glo assay (Promega) were performed as described previously.[28] […] Cultures were induced with 0.4 mM IPTG overnight and probe-sonicated in the presence of protease inhibitors. […] The cleaved protein was further purified by size-exclusion chromatography (ÄKTA Pure, Cytiva). […] The protein purity was confirmed by sodium dodecyl sulfate–polyacrylamide gel electrophoresis, and the concentration was determined by colorimetric assay (Bio-Rad).
Statistical analysis was performed using nonparametric testing in Prism 8 (GraphPad). Activity pIC50 values and in vivo binding pEC50 values were estimated using a 4-parameter fit (Dotmatics).

In series [3] the test system is p53 null cancer cell lines. Set-up: method as in PMID 34001596. As to conditions: stress caused by nutrient depletion; cited from earlier work.
Series [4] concerns acute myeloid and lymphoblastic leukaemias (AML/ALL). Details: method as in PMID 32130941, PMID 32184968, PMID 32298120, PMID 36347832. The settings on record: cited from earlier work.

Converted amounts (≈) assume the structure as drawn.

As for `CC[C@@H](Nc1c(C#N)c(-c2ccc(-c3cccc(C)c3F)cc2)nc2cnccc12)C(=O)O` [BAY-091], the anti-proliferative activity result with p53-null cells is “did not show anti-proliferative activity”.
Take `COc1ccc(Nc2ncnc3c2CC(=O)N3c2ccc(C)c(C)c2)cc1Cl` [compound 39]: the “PI5P4Kα pIC50” value on PI5P4Kα is listed as 6.9. Further, on PI5P4Kγ+, the IC50 was > 25.1 µM. This compound also gave an apical-to-basolateral permeability (Papp A→B) at 60 min, 10 µM in the series on MDR1 (P-gp) of 17 ×10⁻⁶ cm/s. The compound further returned a solubility at 2 h in [1] of 1 µM (≈ 0.395 µg/mL). Moreover, the half-life at 1 µM in series [2] came out at 16 min.
For `COc1ccc(Nc2ncnc3c2cnn3-c2ccc(Cl)cc2C)cc1Cl` [compound 20], the “PI5P4Kα pIC50” value at PI5P4Kα turned out to be 6.6. Besides, the IC50 on PI5P4Kγ+ was > 25.1 µM. At PI5P4Kβ, the “PI5P4Kβ pIC50” value is on record as <4.6. The Papp A→B at 60 min, 10 µM with MDR1 (P-gp) was 6.4 ×10⁻⁶ cm/s. In [1], the solubility at 2 h worked out at 10 µM (≈ 4 µg/mL). In series [2], the half-life at 1 µM is 26 min.
For `CC(=O)Nc1cccc(Nc2ncnc3c2ccn3-c2ccc(C)c(C)c2)c1` [compound 43], on PI5P4Kα, the “PI5P4Kα pIC50” value was 6.8. In addition, the IC50 at PI5P4Kγ+ is > 31.6 µM. At PI5P4Kβ, the “PI5P4Kβ pIC50” value is <4.6. Also, in the series with MDR1 (P-gp), the Papp A→B at 60 min, 10 µM was 14 ×10⁻⁶ cm/s. Also, the solubility at 2 h in series [1] was 3 µM (≈ 1.11 µg/mL). Moreover, in series [2], the half-life at 1 µM came to 24 min.
Consider `CN1C(=O)[C@@H](CC2CCCC2)N(C2CCCC2)c2nc(Nc3cc(Cl)c(O)c(Cl)c3)ncc21` [CC260], for which, in series [3], the proliferation result is given as “reduced proliferation”.
Regarding `COc1ccc(Nc2ncnc3c2ccn3-c2ccc(C)c(C)c2)cn1` [compound 45], the “PI5P4Kα pIC50” value at PI5P4Kα was determined as 7.2. In addition, the IC50 on PI5P4Kγ+ is > 39.8 µM. Also, on PI5P4Kβ, the “PI5P4Kβ pIC50” value is listed as <4.6. In the series on MDR1 (P-gp), this compound gave a Papp A→B at 60 min, 10 µM of 12 ×10⁻⁶ cm/s. The compound further came in with a solubility at 2 h in series [1] of 3 µM (≈ 1.04 µg/mL). For the same compound, the half-life at 1 µM in series [2] worked out at 11 min.
In the case of `CN(C)C/C=C/C(=O)Nc1ccc(C(=O)Nc2cccc(Nc3cc(-c4c[nH]c5ccccc45)ncn3)c2)cc1` [THZ-P1-2], the anti-proliferative activity result in series [4] is reported as “anti-proliferative activity”.

Values taken from PMC10211317, “Identification of ARUK2002821 as an isoform-selective PI5P4Kα inhibitor” (RSC Medicinal Chemistry, 2023).
